Calls of active or inactive are those of the source. The rule behind the calls is not given here.
Columns and labels:
[1] = biological target: Acetylcholine receptor subunit alpha (Torpedo californica) (UniProt P02710); assay: Displacement of [3H]alpha-BGT from nAChR in Torpedo nobiliana electric organs membranes at 300 uM by scintillation counting method; format: tissue-based; conditions: Electric organ
[2] = biological target: Acetylcholine receptor subunit alpha (Torpedo californica) (UniProt P02710); assay: Increase in [3H]PCP binding to nAChR in Torpedo nobiliana electric organs membranes at 1 to 3 uM by scintillation counting method; format: tissue-based; conditions: Electric organ
[3] = biological target: Acetylcholine receptor subunit alpha (Torpedo californica) (UniProt P02710); assay: Increase in [3H]PCP binding to nAChR in Torpedo nobiliana electric organs membranes by scintillation counting method; format: tissue-based; conditions: Electric organ
[4] = biological target: Acetylcholine receptor subunit alpha (Torpedo californica) (UniProt P02710); assay: Displacement of [3H]PCP from nAChR in Torpedo nobiliana electric organs membranes at 300 uM by scintillation counting method; format: tissue-based; conditions: Electric organ
[5] = biological target: Acetylcholine receptor subunit alpha (Torpedo californica) (UniProt P02710); assay: Displacement of [3H]PCP from nAChR in Torpedo nobiliana electric organs membranes assessed as [3H]PCP binding level at 300 uM pre-treated with 0.5 uM alpha-bungarotoxin by scintillation counting method relative to untreated control; format: tissue-based; conditions: Electric organ
[6] = biological target: Acetylcholine receptor subunit alpha (Torpedo californica) (UniProt P02710); assay: Displacement of [3H]PCP from nAChR in Torpedo nobiliana electric organs membranes assessed as [3H]PCP binding level at 300 uM in presence of 100 uM carbachol by scintillation counting method relative to untreated control; format: tissue-based; conditions: Electric organ
[7] = biological target: Acetylcholine receptor subunit alpha (Torpedo californica) (UniProt P02710); assay: Displacement of [3H]PCP from nAChR in Torpedo nobiliana electric organs membranes assessed as [3H]PCP binding level at 300 uM by scintillation counting method relative to untreated control; format: tissue-based; conditions: Electric organ
[8] = Displacement of [3H]alpha-BGT from nAChR in Torpedo nobiliana electric organs membranes by scintillation counting method
[9] = biological target: Acetylcholine receptor subunit alpha (Torpedo californica) (UniProt P02710); assay: Displacement of [3H]PCP from nAChR in Torpedo nobiliana electric organs membranes assessed as [3H]PCP binding level at 1000 uM pre-treated with 0.5 uM alpha-bungarotoxin by scintillation counting method relative to untreated control; format: tissue-based; conditions: Electric organ
[10] = biological target: Acetylcholine receptor subunit alpha (Torpedo californica) (UniProt P02710); assay: Displacement of [3H]PCP from nAChR in Torpedo nobiliana electric organs membranes assessed as [3H]PCP binding level at 1000 uM in presence of 100 uM carbachol by scintillation counting method relative to untreated control; format: tissue-based; conditions: Electric organ
[11] = biological target: Acetylcholine receptor subunit alpha (Torpedo californica) (UniProt P02710); assay: Displacement of [3H]PCP from nAChR in Torpedo nobiliana electric organs membranes assessed as [3H]PCP binding level at 1000 uM by scintillation counting method relative to untreated control; format: tissue-based; conditions: Electric organ
[12] = biological target: Acetylcholine receptor subunit alpha (Torpedo californica) (UniProt P02710); assay: Displacement of [3H]alpha-BGT from nAChR in Torpedo nobiliana electric organs membranes at 1000 uM by scintillation counting method; format: tissue-based; conditions: Electric organ
[13] = biological target: Acetylcholine receptor subunit alpha (Torpedo californica) (UniProt P02710); assay: Displacement of [3H]PCP from nAChR in Torpedo nobiliana electric organs membranes at 1000 uM by scintillation counting method; format: tissue-based; conditions: Electric organ
[14] = biological target: Acetylcholine receptor subunit alpha (Torpedo californica) (UniProt P02710); assay: Displacement of [3H]PCP from nAChR in Torpedo nobiliana electric organs membranes assessed as [3H]PCP binding level at 500 uM in presence of 100 uM carbachol by scintillation counting method relative to untreated control; format: tissue-based; conditions: Electric organ
[15] = biological target: Acetylcholine receptor subunit alpha (Torpedo californica) (UniProt P02710); assay: Displacement of [3H]PCP from nAChR in Torpedo nobiliana electric organs membranes assessed as [3H]PCP binding level at 500 uM by scintillation counting method relative to untreated control; format: tissue-based; conditions: Electric organ

Sequence of Acetylcholine receptor subunit alpha (Torpedo californica) (P02710 whole entry): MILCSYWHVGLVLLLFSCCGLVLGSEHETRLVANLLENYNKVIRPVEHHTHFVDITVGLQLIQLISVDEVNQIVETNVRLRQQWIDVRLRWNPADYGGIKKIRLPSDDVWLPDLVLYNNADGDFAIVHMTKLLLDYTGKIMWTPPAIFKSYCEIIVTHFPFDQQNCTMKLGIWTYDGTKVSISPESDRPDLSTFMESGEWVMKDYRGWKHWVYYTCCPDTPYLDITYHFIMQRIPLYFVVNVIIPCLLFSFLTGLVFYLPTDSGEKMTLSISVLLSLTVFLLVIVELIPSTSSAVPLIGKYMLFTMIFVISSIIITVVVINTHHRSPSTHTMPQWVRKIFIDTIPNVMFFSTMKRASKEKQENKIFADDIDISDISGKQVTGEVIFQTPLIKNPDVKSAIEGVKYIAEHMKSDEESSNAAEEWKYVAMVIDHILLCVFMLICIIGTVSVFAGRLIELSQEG

Q: For `c1csc(C2(N3CCCCC3)CCCCC2)c1`, which inhibition [1] is on record?
A: 0.91%

Q: Which Activity [2] does the source give for `COc1cc2c3cc1Oc1cc(ccc1O)C[C@@H]1c4c(cc(OC)c(O)c4Oc4ccc(cc4)C[C@@H]3N(C)CC2)CC[N+]1(C)C` here?
A: 160%

Q: And the Activity [3]?
A: Active

Q: And the inhibition [4]?
A: 91.3%

Q: With `CCC[C@H]1CCCCN1` as the compound, how does the Activity [3] read?
A: Active

Q: Which Activity [5] does the source give for `O=[N+]([O-])/C=C1\NCCN1Cc1ccc(Cl)nc1` here?
A: 142%

Q: And the Activity [6]?
A: 94.6%

Q: And the Activity [7]?
A: 461%

Q: For `CN(C)C1CSSC1`, which Activity [3] is on record?
A: Active

Q: Which results are given for `CN1CCC[C@H]1c1cccnc1` [NICOTINE]?
A: Activity [3]: Active; IC50 [8]: 23.1 µM

Q: Which results are given for `C/C(=N\C#N)N(C)Cc1ccc(Cl)nc1`?
A: Activity [5]: 104%; Activity [6]: 93.3%; Activity [7]: 221%

Q: For `O=[N+]([O-])C=C1NCCCS1`, which Activity [9] is on record?
A: 112%

Q: What about the Activity [10] of the same compound?
A: 762%

Q: What about the Activity [11] of the same compound?
A: 439%

Q: And the IC50 [8]?
A: 1590 µM

Q: With `C[N+](C)(C)CCOC(N)=O` [CARBACHOL] as the compound, how does the Activity [3] read?
A: Active

Q: What about the IC50 [8] of the same compound?
A: 7.64 µM

Q: With `CSCCN1CCN/C1=C\[N+](=O)[O-]` as the compound, how does the Activity [6] read?
A: 830%

Q: And the Activity [7]?
A: 181%

Q: For `CNC1(C)C2CCC(C2)C1(C)C` (configuration not stated), which inhibition [12] is on record?
A: 0%

Q: Which Activity [3] does the source give for `CN1CCC[C@@H]1c1cccnc1` here?
A: Active

Q: With `O=c1cccc2n1C[C@@H]1CNC[C@H]2C1` as the compound, how does the Activity [3] read?
A: Active

Q: Which inhibition [1] does the source give for `O=C1N(Cc2ccccc2)C2C[S+]3CCCC3C2N1Cc1ccccc1` (configuration not stated) here?
A: 5.7%

Q: And the inhibition [13]?
A: 59.5%

Q: And the inhibition [4]?
A: 5.93%

Q: For `O=[N+]([O-])/N=C1\NCCN1Cc1ccc(Cl)nc1` [IMIDACLOPRID], which Activity [5] is on record?
A: 108%

Q: What about the Activity [6] of the same compound?
A: 92.4%

Q: What about the Activity [7] of the same compound?
A: 287%

Q: What about the IC50 [8] of the same compound?
A: 1060 µM

Q: For `c1cncc([C@@H]2CCCCN2)c1` [ANABASINE], which Activity [3] is on record?
A: Active

Q: What about the IC50 [8] of the same compound?
A: 193 µM

Q: Which results are given for `CCN(Cc1ccc(Cl)nc1)/C(=C/[N+](=O)[O-])NC`?
A: inhibition [1]: 2.39%; Activity [14]: 607%; Activity [15]: 142%

Q: For `c1ccc(C2(N3CCCCC3)CCCCC2)cc1`, which inhibition [12] is on record?
A: 3.2%

Q: Which Activity [3] does the source give for `C[N+]1(C)CCN(c2ccccc2)CC1` here?
A: Active

Q: With `CNC1(c2ccccc2Cl)CCCCC1=O` (configuration not stated) as the compound, how does the inhibition [12] read?
A: 0.1%

Q: For `CN1[C@@H](CC(=O)c2ccccc2)CCC[C@H]1C[C@H](O)c1ccccc1`, which inhibition [12] is on record?
A: 0%

Q: For `CN(C)CCCN1c2ccccc2Sc2ccc(Cl)cc21`, which inhibition [12] is on record?
A: 7.15%
